Experimental data reported in patent US5250734A, “Phenanthrene methanol compounds useful as antimalarial agents” (Belmac Corporation, priority 1992, dated 1993).
Entries after “also recorded” stand apart in the source; their conditions may differ. Where a name gives a salt, the structure may show the parent alone. Read-outs that look alike come from different tables or passages of the source.

Assays:
[1] = test system: Chesson strain of P. vivax; conditions: short period, minimum of two doses; cited from earlier work
[2] = in vivo; cited from earlier work
[3] = test system: Plasmodium berghei KBG 173; experiment: Survival of mice infected with drug-sensitive malaria, compound of Synthesis Example 3, halofantrine or mefloquine; format: in vivo, Plasmodium berghei KBG 173 in ICR/HA Swiss mice
[4] = test system: Plasmodium berghei KBG 173; experiment: Survival of malaria infected mice, compound of Synthesis Example 2, halofantrine or mefloquine; format: in vivo, Plasmodium berghei KBG 173 in ICR/HA Swiss mice
[5] = test system: Plasmodium berghei KBG 173; experiment: Survival of mice infected with drug-sensitive malaria, compound of Synthesis Example 3, halofantrine or mefloquine; format: in vivo, Plasmodium berghei KBG 173 in ICR/HA Swiss mice; conditions: SC
Text: The protocol which is set forth below is a well-established model for the treatment of malaria in human beings, and has been adopted by the U.S. Army Medial Research Command.
The system used for the compounds formed in Synthesis Examples 2 and 3 was based on comparisons of responses to test compounds by Plasmodium berghei KBG 173 malaria in mice as expressed in mean survival times and the mean survival times of untreated controls. Thus, compounds noted as active produced increases in the survival times of the treated animals that are significant when compared with the survival times of untreated controls. Since an established disease is less sensitive to treatment than a disease in the early stages of development, treatment was withheld until the parasitemia was relatively high in order to ensure a more reliable assay of activity and the selection of appropriate compounds for pre-clinical studies.
(§1) Utilizing young ICR/HA Swiss mice and a standard inoculum of Plasmodium berghei KBG 173, it was possible to produce a uniform disease fatal to […] of untreated animals within 6 to 8 days with a mean survival time of 6.2 days. Test animals weighed from 18 to 22 grams but weight variations in any given experimental or control group were confined to 2-3 grams. All animals in any given test were approximately of the same age. Animals on test were housed in metal-topped plastic cages, given a standard laboratory diet and water ad libitum.
(§2) Test animals received an intraperitoneal injection of 0.5 ml of 1:100 dilution of heparinized heart's blood with a minimum of 90% parasitized cells (4×10^7 cells), drawn from donor mice infected one week earlier with Plasmodium berghei. The donor strain was maintained by weekly passages in separate groups of mice inoculated with a 0.5 ml of 1:500 dilution of heparinized heart's blood.
(§3) Test compounds were administered after dissolution or suspension in peanut oil. A single dose was given subcutaneously 72 hours after the mice were infected with Plasmodium berghei. At this time a 10-15 percent parasitemia had developed; the disease was well established but had not produced sufficient debility to alter the response of the host to toxic effects of the drug on test. Since treatment was withheld for three days to permit the infection to become well-established and death occurred in untreated controls within 6-8 days, it was felt that this system presented a candidate compound with the maximum challenge.

[6] = test system: P. falciparum (multi-drug resistant Vietnam Smith strain and Cambodian Buchanan strain); conditions: short period, minimum of two doses; Vietnam Smith and Cambodian Buchanan strains; cited from earlier work
[7] = test system: Plasmodium falciparum FCM 29/Cameroon; experiment: In vitro drug susceptibility test ([3H]hypoxanthine uptake), strain FCM 29/Cameroon; format: cell-based
Experimental: (§4) Three strains of P. falciparum were used. FCM 29/Cameroon was highly chloroquine- and quinine-resistant (IC50 […] and 800 nM, respectively). The strain was cloned by a dilution method. FCM 6/Thailand was moderately chloroquine-resistant (IC50 600 nM), while L-3/Ivory Coast was chloroquine-susceptible (IC50 20 nM). The continuous in vitro culture of the parasites was maintained under standard conditions, as described by W. Trager and J. B. Jensen, "Human malaria parasites in continuous culture", Science 193, 673-675 (1976), with a gas phase of 5% O2, 5% CO2, and 90% N2.
(§5) The test compound was dissolved in methanol to a concentration of 1 mg/ml. Triplicates of seven serial dilutions were prepared to obtain the final concentrations ranging from 0.4 to 25 ng/ml and distributed in 24-well plates. […]
(§6) The testing procedures used for the in vitro assay in this study were those described by J. Le Bras and P. Deloron, "In vitro study of drug sensitivity of Plasmodium falciparum: an evaluation of a new semi-microtest", American Journal of Tropical Medicine and Hygiene 32: 447-451 (1983). […] The filter discs were dried and placed in a mini-vial with 1.5 ml of liquid scintillation cocktail (OptiScint `Hisafe`, LKB, Wallac, England) and the amount of radioactivity incorporated by the parasites was measured by a liquid scintillation counter (Wallac 1410, Pharmacia, Sweden). […]

[8] = Toxicity in malaria infected mice; format: in vivo, ICR/HA Swiss mice; conditions: 256 mg/kg/day
Text: as §1, §2
Test compounds were administered after dissolution or suspension in peanut oil. A single dose was given subcutaneously 72 hours after the mice were infected with Plasmodium berghei. At this time a 10-15 percent parasitemia had developed; the disease was well established but had not produced sufficient debility to alter the response of the host to toxic effects of the drug on test. […]

[9] = test system: Plasmodium berghei KBG 173; experiment: Mean parasitemias for mice treated with the compound of Synthesis Example 2; format: in vivo, Plasmodium berghei KBG 173 in ICR/HA Swiss mice
Plasmodium falciparum = experiment: In vitro antimalarial activity against established lines of P. falciparum (overall statement); format: cell-based
Experimental: The compound of Synthesis Example 1 was tested against the established lines of Plasmodium falciparum in vitro. Halofantrine hydrochloride was used as a reference drug.
as §4
The test compound was dissolved in methanol to a concentration of 1 mg/ml. […]
as §6

[10] = test system: Plasmodium falciparum L-3/Ivory Coast; experiment: In vitro drug susceptibility test ([3H]hypoxanthine uptake), strain L-3/Ivory Coast; format: cell-based; conditions: two values given
Experimental: as §4, §5, §6

[11] = test system: Plasmodium falciparum FCM 6/Thailand; experiment: In vitro drug susceptibility test ([3H]hypoxanthine uptake), strain FCM 6/Thailand; format: cell-based; conditions: mean ± SEM from four separate assays
Experimental: as §4, §5, §6

Plasmodium berghei = experiment: Positive control group of infected mice treated with pyrimethamine; format: in vivo, Plasmodium berghei in ICR/HA Swiss mice; conditions: dose levels not stated
Experimental: as §3

[12] = test system: Plasmodium falciparum (chloroquine-sensitive and resistant strains); conditions: cited from earlier work

CCCCN(CCCC)CCC(O)c1cc2c(Cl)cc(Cl)cc2c2cc(C(F)(F)F)ccc12 (centres unmarked) [halofantrine, 1-[1,3-dichlorotrifluoromethyl-9-phenanthryl]-3-di-(n-butyl)-aminopropanolhydrochloride]
antimalarial efficacy [1]: effective
systemic bioavailability [2]: problems with systemic bioavailability remained
number of mice alive D + 18 / total ([3]; 1 mg/kg/day, PO): 4/7
number of mice dead/day died ([3]; 1 mg/kg/day, PO): 3/18
number of mice alive D + 18 / total ([3]; 4 mg/kg/day, PO): 6/7
number of mice dead/day died ([3]; 4 mg/kg/day, PO): 1/18
number of mice alive D + 18 / total ([3]; 16 mg/kg/day, PO): 6/6
number of mice alive day 21/total ([4]; 1 mg/kg/day, PO): 4/7
number of mice alive day 21/total ([4]; 1 mg/kg/day, SC): 2/7
number of mice alive day 21/total ([4]; 4 mg/kg/day, PO): 6/7
number of mice dead/day died ([4]; 4 mg/kg/day, PO): 1/19
number of mice alive day 21/total ([4]; 4 mg/kg/day, SC): 7/7
number of mice alive day 21/total ([4]; 16 mg/kg/day, PO): 6/7
number of mice dead/day died ([4]; 16 mg/kg/day, PO): 1/19
number of mice alive day 21/total ([4]; 16 mg/kg/day, SC): 6/7
number of mice dead/day died ([4]; 16 mg/kg/day, SC): 1/21
number of mice alive D + 18 / total ([5]; 1 mg/kg/day): 5/7
number of mice alive D + 18 / total ([5]; 4 mg/kg/day): 7/7
number of mice alive D + 18 / total ([5]; 16 mg/kg/day): 7/7
antimalarial efficacy [6]: effective

C=C[C@H]1C[N@@]2CC[C@H]1C[C@H]2[C@H](O)c1ccnc2ccc(OC)cc12 [quinine, reference compound]
IC50 ([7]; read-out: IC50 (strain resistance)): 800 nM

1,3-dichloro-6-triflurormethyl-[1-hydroxy-3-(3-phenyl-1-propylamino)propyl] phenanthrene quinate [Synthesis Example 2]
toxicity [8]: Toxicity clearly evident at this level
mean parasitemia ([9]; 4 mg/kg/day, oral): 31.2
mean parasitemia ([9]; 4 mg/kg/day, subcut.): 45.2
mean parasitemia ([9]; 16 mg/kg/day, oral): 16.3
mean parasitemia ([9]; 16 mg/kg/day, subcut.): 10.7
mean parasitemia ([9]; 64 mg/kg/day, oral): 0.14
mean parasitemia ([9]; 64 mg/kg/day, subcut.): 0.4
mean parasitemia ([9]; 256 mg/kg/day, oral): 1.00
mean parasitemia ([9]; 256 mg/kg/day, subcut.): 0.00
mean parasitemia ([9]; 1 (printed "l") mg/kg/day, oral): 19.3
mean parasitemia ([9]; 1 (printed "l") mg/kg/day, subcut.): 61.7
number of mice alive day 21/total ([4]; 1 mg/kg/day, PO): 3/7
number of mice alive day 21/total ([4]; 1 mg/kg/day, SC): 3/7
number of mice alive day 21/total ([4]; 4 mg/kg/day, PO): 7/7
number of mice alive day 21/total ([4]; 4 mg/kg/day, SC): 5/7
number of mice alive day 21/total ([4]; 16 mg/kg/day, PO): 6/7
number of mice dead/day died ([4]; 16 mg/kg/day, PO): 1/21
number of mice alive day 21/total ([4]; 16 mg/kg/day, SC): 7/7
number of mice alive day 21/total ([4]; 64 mg/kg/day, PO): 7/7
number of mice alive day 21/total ([4]; 64 mg/kg/day, SC): 7/7
number of mice alive day 21/total ([4]; 256 mg/kg/day, PO): 1/7
number of mice alive day 21/total ([4]; 256 mg/kg/day, SC): 5/7

CCCCNCCC(O)c1cc2c(Cl)cc(Cl)cc2c2cc(C(F)(F)F)ccc12.Cl (centres unmarked) [Synthesis Example 1, 1,3-Dichloro-6-trifluoromethyl-9-[1-hydroxy-3-(butylamino)propyl] phenanthrene hydrochloride]
activity compared with halofantrine (Plasmodium falciparum; P. falciparum, reference halofantrine): slightly less than that of halofantrine
antimalarial activity (Plasmodium falciparum; chloroquine-susceptible and chloroquine-resistant strains, hydrochloride): high antimalarial activity against both chloroquine-susceptible and chloroquine-resistant strains; also recorded: potent antimalarial action at a low nanomolar range
IC50 ([10]; Plasmodium falciparum): 4.3 ng/mL
IC50 ([10]; hydrochloride): 4.8 ng/mL
IC50 [11]: 3 ± 0.2 ng/mL
IC50 [7]: 3.5 ± 0.6 ng/mL

CCc1nc(N)nc(N)c1-c1ccc(Cl)cc1 [pyrimethamine]
survival time (Plasmodium berghei): definite increases in survival time

Cl.OC(CCNCCCc1ccccc1)c1cc2c(Cl)cc(Cl)cc2c2cc(C(F)(F)F)ccc12 (centres unmarked) [Synthesis Example 3, 1,3-dichloro-6-trifluoromethyl-9-[1-hydroxy-3-(3-phenyl-1-propylamino)propyl] phenanthrene hydrochloride]
number of mice alive D + 18 / total ([3]; 1 mg/kg/day, PO): 2/7
number of mice alive D + 18 / total ([3]; 1 mg/kg/day, SC): 1/7
number of mice alive D + 18 / total ([3]; 4 mg/kg/day, PO): 6/7
number of mice dead/day died ([3]; 4 mg/kg/day, PO): 1/8
number of mice alive D + 18 / total ([3]; 4 mg/kg/day, SC): 7/7
number of mice alive D + 18 / total ([3]; 16 mg/kg/day, PO): 7/7
number of mice alive D + 18 / total ([3]; 64 mg/kg/day, PO): 7/7
number of mice alive D + 18 / total ([3]; 64 mg/kg/day, SC): 7/7
number of mice alive D + 18 / total ([3]; 256 mg/kg/day, PO): 6/7
number of mice dead/day died ([3]; 256 mg/kg/day, PO): 1/4
number of mice alive D + 18 / total ([3]; 256 mg/kg/day, SC): 7/7
number of mice alive D + 18 / total ([5]; 16 mg/kg/day): 7/7

OC(c1cc(C(F)(F)F)nc2c(C(F)(F)F)cccc12)C1CCCCN1 (stereo not drawn) [Mefloquine, α-2-piperidinyl-2,8-bis(trifluorormethyl)-4-quinoline methanol]
antimalarial activity in humans [12]: exhibit antimalarial activity in humans against both chloroquine-sensitive and resistant strains
number of mice alive D + 18 / total ([3]; 1 mg/kg/day, PO): 0/7
number of mice alive D + 18 / total ([3]; 4 mg/kg/day, PO): 6/7
number of mice dead/day died ([3]; 4 mg/kg/day, PO): 1/16
number of mice dead/day died ([3]; 4 mg/kg/day, SC): 3/13
number of mice alive D + 18 / total ([3]; 16 mg/kg/day, PO): 7/7
number of mice alive day 21/total ([4]; 1 mg/kg/day, PO): 0/7
number of mice alive day 21/total ([4]; 4 mg/kg/day, PO): 3/7
number of mice alive day 21/total ([4]; 16 mg/kg/day, PO): 7/7
number of mice alive D + 18 / total ([5]; 1 mg/kg/day): 0/7
number of mice alive D + 18 / total ([5]; 4 mg/kg/day): 4/7
number of mice alive D + 18 / total ([5]; 16 mg/kg/day): 7/7
